Laboratory results: US4681969A, “Process for the preparation of an enantiomeric pair of isomers of cyfluthrin” (Imperial Chemical Industries PLC, priority 1984, dated 1987)
≈ marks a conversion by molar mass, not a printed value. Where two headings read alike, the source gives them in different places.

Assays:
[1] = relative insecticidal efficacy (general statement); format: in vivo; settings: Starting Material vs previously described mixture of cis and trans isomers; Racemate vs Starting Material
[2] = system: Heliothis virescens (tobacco budworm); experiment: LC50 against larval tobacco budworm; format: in vivo; settings: for LC50: read-out: LC50 (concentration required to kill 50% of a population)
Excerpt: The isomers were obtained by the h.p.l.c. technique shown in the next Example.

Row | SMILES | relative insecticidal efficacy [1] | LC50 ([2]; larval Heliothis virescens) [µg/mL] | efficacy relative to cyfluthrin ([2]; larval Heliothis virescens, from LC50 values) | LC50 ([2]; Heliothis virescens) [µg/mL]
1 | CC1(C)[C@H](C(=O)OC(C#N)c2ccc(F)c(Oc3ccccc3)c2)[C@@H]1C=C(Cl)Cl (mixture of isomers) [The Starting Material, (RS) -α-cyano-4-fluoro-3-phenoxybenzyl (1RS,cis)-3-(2,2-dichlorovinyl)-2,2-dimethylcyclopropane carboxylate] | potent insecticide of greater relative efficacy than the previously described mixture of cis and trans isomers | – | – | –
2 | CC1(C)C(C=C(Cl)Cl)C1C(=O)OC(C#N)c1ccc(F)c(Oc2ccccc2)c1 (racemic) [Cyfluthrin, (R,S)-α-cyano-4-fluoro-3-phenoxybenzyl (1R,S-cis)/(1R,S-trans)-3-(2,2-dichlorovinyl)-2,2-dimethylcyclopropane carboxylate] | – | 7.1 (≈ 16.3 µM) | – | –
3 | CC1(C)[C@H](C(=O)O[C@H](C#N)c2ccc(F)c(Oc3ccccc3)c2)[C@@H]1C=C(Cl)Cl (relative stereo) [1R,cis-S/1S,cis-R, (S)-α-cyano-4-fluoro-3-phenoxybenzyl (1R,cis)-3-(2,2-dichlorovinyl)-2,2-dimethylcyclopropanecarboxylate and its enantiomer, (R)-α-cyano-4-fluoro-3-phenoxybenzyl (1S,cis)-3-(2,2-dichlorovinyl)-2,2-dimethylcyclopropane carboxylate] | even more effective insecticidal product | 1.8 (≈ 4.14 µM) | about four times more efficacious than cyfluthrin | –
4 | CC1(C)[C@H](C=C(Cl)Cl)[C@H]1C(=O)O[C@H](C#N)c1ccc(F)c(Oc2ccccc2)c1 (relative stereo) [1R,trans-S/1S,trans-R] | – | 3.6 (≈ 8.29 µM) | – | –
5 | CC1(C)[C@H](C(=O)O[C@@H](C#N)c2ccc(F)c(Oc3ccccc3)c2)[C@@H]1C=C(Cl)Cl (relative stereo) [1S,cis-S/1R,cis-R, (R)-α-cyano-4-fluoro-3-phenoxybenzyl (1R,cis)-3-(2,2-dichlorovinyl)-2,2-dimethylcyclopropane carboxylate and (S)-α-cyano-4-fluoro-3-phenoxybenzyl (1S,cis)-3-(2,2-dichlorovinyl)-2,2-dimethylcyclopropane carboxylate] | – | – | – | 23.4 (≈ 53.9 µM)
